Reference: patent US20220370384A1, “COMBINATIONS OF MEK INHIBITORS WITH CAP-DEPENDENT ENDONUCLEASE INHIBITORS” (priority 2019, published 2022)

Legend:
Assay type in all cases: cell-based, influenza virus
[1] = system: rgA/Giessen/6/09 (H1N1)-PA-I38T
[2] = system: rgA/Victoria/3/75 (H3N2-PA-I38T)
[3] = system: A/Mississippi/3/2001 (H1N1) mutant strain with the H275Y mutation in the NA gene

With `O=C(O)c1ccc(F)c(F)c1Nc1ccc(I)cc1Cl` [ATR002, 2-(2-chloro-4-iodophenylamino)-N-3,4-difluoro benzoic acid] the “antiviral effect in mutant strain compared with wild type” value [1] was “steady effect as found in the wild type” and the antiviral activity [2] was “revealed its potency against both variants”.
For `COC(=O)OCOc1c2n(ccc1=O)N([C@@H]1c3ccccc3SCc3c1ccc(F)c3F)[C@@H]1COCCN1C2=O` [BLXM], the “activity lower when investigated using the mutant strain” value [1] was 37% and the “activity lost in the mutant variant” value [2] was “about 41%”.
In the case of `O=C(NOCC1CC1)c1ccc(F)c(F)c1Nc1ccc(I)cc1Cl` [CI-1040], the antiviral effectiveness [3] is reported as “comparable antiviral effect”.
In the case of `CCOC(=O)C1=C[C@@H](OC(CC)CC)[C@H](NC(C)=O)[C@@H](N)C1` [oseltamivir], the antiviral effectiveness [3] is reported as “significant reduction in oseltamivir effectiveness”.
